Data as given in ChEMBL document CHEMBL1143953, “Novel 2-phenylquinolin-7-yl-derived imidazo[1,5-a]pyrazines as potent insulin-like growth factor-I receptor (IGF-IR) inhibitors” (Bioorg Med Chem, 2008).
pIC50: −log10 of the molar value.

What was measured:
[1] = target: Insulin-like growth factor 1 receptor (Homo sapiens, UniProt P08069)
Description: Inhibition of human recombinant full length IGF1R expressed in mouse 3T3 cells

Cytochrome P450 3A4 = Cytochrome P450 3A4 (Homo sapiens, UniProt P08684); test: Inhibition of CYP3A4; format: ADME
Chain of Cytochrome P450 3A4 (P08684 whole entry): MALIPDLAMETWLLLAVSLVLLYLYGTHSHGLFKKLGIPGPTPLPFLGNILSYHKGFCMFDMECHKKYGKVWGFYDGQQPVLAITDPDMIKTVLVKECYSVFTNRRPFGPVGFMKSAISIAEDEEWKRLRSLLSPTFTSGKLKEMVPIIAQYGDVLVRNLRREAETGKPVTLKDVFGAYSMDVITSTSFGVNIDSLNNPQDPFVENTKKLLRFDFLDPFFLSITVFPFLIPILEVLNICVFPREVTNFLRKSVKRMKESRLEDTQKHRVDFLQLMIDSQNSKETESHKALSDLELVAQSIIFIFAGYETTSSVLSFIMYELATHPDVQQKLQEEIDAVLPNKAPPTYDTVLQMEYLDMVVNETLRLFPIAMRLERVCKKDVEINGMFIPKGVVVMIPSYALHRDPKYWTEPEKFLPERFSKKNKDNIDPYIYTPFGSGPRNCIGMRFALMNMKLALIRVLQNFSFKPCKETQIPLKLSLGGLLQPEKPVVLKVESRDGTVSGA

Chain of Insulin-like growth factor 1 receptor (P08069 31-736 limits assumed): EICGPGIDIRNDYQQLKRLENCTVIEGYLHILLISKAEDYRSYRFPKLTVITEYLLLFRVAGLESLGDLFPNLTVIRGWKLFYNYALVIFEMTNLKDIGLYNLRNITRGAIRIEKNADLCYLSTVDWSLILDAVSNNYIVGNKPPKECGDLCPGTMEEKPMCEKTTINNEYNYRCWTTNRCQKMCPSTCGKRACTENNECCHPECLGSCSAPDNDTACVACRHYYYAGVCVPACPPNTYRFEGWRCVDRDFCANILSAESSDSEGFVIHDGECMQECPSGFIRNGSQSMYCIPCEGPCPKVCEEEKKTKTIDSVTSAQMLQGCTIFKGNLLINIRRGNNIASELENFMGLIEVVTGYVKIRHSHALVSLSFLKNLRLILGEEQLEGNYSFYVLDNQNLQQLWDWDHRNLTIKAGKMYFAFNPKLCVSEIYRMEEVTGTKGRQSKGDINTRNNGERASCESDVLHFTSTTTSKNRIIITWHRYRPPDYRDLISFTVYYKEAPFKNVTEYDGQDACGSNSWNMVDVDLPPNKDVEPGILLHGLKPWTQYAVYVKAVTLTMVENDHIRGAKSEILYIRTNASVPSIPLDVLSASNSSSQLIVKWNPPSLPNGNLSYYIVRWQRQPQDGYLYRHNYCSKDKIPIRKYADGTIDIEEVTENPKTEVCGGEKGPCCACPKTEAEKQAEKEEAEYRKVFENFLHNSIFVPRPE
Chain of Insulin-like growth factor 1 receptor (P08069 741-1367 limits assumed): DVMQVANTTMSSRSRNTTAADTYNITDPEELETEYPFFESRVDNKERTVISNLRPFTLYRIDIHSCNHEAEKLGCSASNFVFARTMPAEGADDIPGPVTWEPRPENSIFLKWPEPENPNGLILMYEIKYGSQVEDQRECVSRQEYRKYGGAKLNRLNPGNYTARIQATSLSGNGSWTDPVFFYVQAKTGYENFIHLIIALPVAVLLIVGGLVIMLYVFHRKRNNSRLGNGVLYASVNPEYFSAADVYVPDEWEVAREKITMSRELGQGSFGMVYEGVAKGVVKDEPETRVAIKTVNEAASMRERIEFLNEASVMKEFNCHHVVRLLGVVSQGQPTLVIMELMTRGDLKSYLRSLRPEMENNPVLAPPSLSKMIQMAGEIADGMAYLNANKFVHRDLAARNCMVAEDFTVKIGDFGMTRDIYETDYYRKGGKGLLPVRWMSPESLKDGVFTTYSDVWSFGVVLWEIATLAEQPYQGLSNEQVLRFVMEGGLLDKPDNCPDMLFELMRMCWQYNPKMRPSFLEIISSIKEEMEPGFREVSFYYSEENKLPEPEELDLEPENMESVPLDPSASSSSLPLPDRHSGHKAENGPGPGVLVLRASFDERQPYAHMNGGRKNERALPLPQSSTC

Structure (SMILES)	pIC50 [1]	pIC50 (Cytochrome P450 3A4)
Oc1nccn2c(C3CCC3)nc(-c3ccc4ccc(-c5ccccc5)nc4c3)c12	< 5.00	
Nc1nccn2c1c(-c1ccc3ccc(-c4ccccc4)nc3c1)nc2[C@H]1C[C@@H](N2CCCC2)C1		4.77
Nc1nccn2c(C3CCC3)nc(-c3ccc4ccc(-c5ccccc5)nc4c3)c12		5.47
Nc1nccn2c1c(-c1ccc3ccc(-c4ccccc4)nc3c1)nc2[C@H]1C[C@@H](CN2CCOCC2)C1		< 4.70
Nc1nccn2c1c(-c1ccc3ccc(-c4ccccc4)nc3c1)nc2[C@H]1C[C@@H](N2CCC2)C1		< 4.70

The remaining lines, values ahead:

pIC50 [1]	pIC50 (Cytochrome P450 3A4)	Structure (SMILES)
	5.12	Nc1nccn2c1c(-c1ccc3ccc(-c4ccccc4)nc3c1)nc2[C@H]1C[C@@H](N2CCCCC2)C1
	5.11	Nc1nccn2c1c(-c1ccc3ccc(-c4ccccc4)nc3c1)nc2[C@H]1C[C@@H](N2CCSCC2)C1
7.38	4.77	Nc1nccn2c1c(-c1ccc3ccc(-c4ccccc4)nc3c1)nc2[C@H]1C[C@H](CN2CCC2)C1
